Data set [1] can be described thus: Formation and TEM size of amine-passivated Au nanoparticles. Type of data set: physicochemical. The conditions noted are these: size of the Au nanoparticle formed with the named amine compound as ligand, same synthesis conditions. How it is done: In a typical synthesis of water soluble nanoparticles Au:MTX, 5 μmol of HAuCl4 and 25 μmol of MTX were dispersed with brief sonication in 2 mL methanol in a tri-neck 15 mL flask on ice water (0° C.) bath under Ar purge. After 1 hour of stirring at 700 rpm, 0.5 mL of freshly prepared 0.11 M NaBH4 on ice was added drop-wise at 1200 rpm. After ˜1 hour, stirring speed was reduced to 700 rpm and kept for additional ˜30 minutes.
The reacted solution was centrifuged at 4° C. at 16,100×g for 15 minutes twice, with the addition of 4:1 (volume) mixture of methanol and water, and ethanol respectively. This set of two step centrifugation was repeated at least 3 times, and then the precipitate was re-dispersed in water to obtain aqueous solutions. The aqueous solution was further purified using 3 k ultra centrifugal filter (Millipore, Billerica, Mass.). […]

The subject of data set [2] is human AML cell line THP-1. The data set is described as follows: THP-1 growth curves (cell density and viability). Format: cell-based. The settings on record: 1, 2 and 5 nM. As to the method:
In order to evaluate the efficacy of Au:MTX in vitro, a human AML cell line THP-1 and human normal hematopoietic stem/progenitor cells (HSPCs) were used. HSPCs were isolated from umbilical cord blood via a CD34+ magnetic cell sorting (CD34 MicroBead Kit #130-046-702, Miltenyl Biotec, Auburn, Calif.). […] Cell density and viability were measured every 24 hours using the cell viability analyzer. […]
The inventors characterized Au:MTX as drug delivery vehicles and evaluated in vitro therapeutic effects. Au:MTX was purified via sets of centrifugal precipitations, and the Au-to-MTX molar ratio (drug loading onto Au nanoparticle) was measured by elemental analyses (carbon-hydrogen-nitrogen analysis, or CHN; and inductively coupled plasma mass spectrometry, or ICP-MS). […] Au-to-MTX molar ratio was determined as [Au]:[MTX]=9.8:1, i.e. one nanoparticle on average carried ˜75 MTX molecules (assuming ˜1.44 Å as atomic radius of Au and uniform surface coverage, as illustrated in FIG. 1(c)). […] Drug delivery by Au:MTX was evaluated using a human AML cell line THP-1. […] Au:FOL, with the diameter 2.6±1.1 nm measured by TEM, is structurally similar to Au:MTX and was therefore used as an “Au nanoparticle without active drug” control. […]

For data set [3], the system named is human normal hematopoietic stem/progenitor cells (HSPCs). The data set is described as follows: Normal HSPC growth curves. Type of data set: cell-based. The settings on record: 1, 2 and 5 nM. As to the method: In order to evaluate the efficacy of Au:MTX in vitro, a human AML cell line THP-1 and human normal hematopoietic stem/progenitor cells (HSPCs) were used. HSPCs were isolated from umbilical cord blood via a CD34+ magnetic cell sorting (CD34 MicroBead Kit #130-046-702, Miltenyl Biotec, Auburn, Calif.). THP-1 cells were cultured in Roswell Park Memorial Institute 1640 (RPMI, Life Technologies, Carlsbad, Calif.) with 10% fetal bovine serum (FBS, Life Technologies), and HSPCs were cultured in Iscove's Modified Dulbecco's Medium (IMDM, Life Technologies) with 10% FBS and cytokines (10 ng/mL of SCF, TPO, and FLT3; 5 ng/mL of IL-3 and IL-6, PeproTech, Rockey Hill, N.J.), respectively, using 24-well cell culture plates with 0.7 mL of culture media per well (at 37° C. with 5% CO2 and >95% humidity). Cell viability was confirmed to be >95% using cell viability analyzer (Vi-Cell, Beckman Coulter, Brea, Calif.) immediately before the experiments. Then the cells were treated with phosphate buffer saline (PBS, Life Technologies), MTX, aqueous solutions of equimolar Au:MTX, and/or equimolar Au:FOL (folic acid-passivated Au nanoparticles). Cell cultures were split two-fold after 72 hours by replenishing each well with fresh media. Cell density and viability were measured every 24 hours using the cell viability analyzer. […]

Entries after “also recorded” stand apart in the source; their conditions may differ.

Turning to `[H]/N=C(/N)N[C@H]1[C@H](O)[C@@H](O)[C@H](O[C@@H]2O[C@@H](C)[C@](O)(C=O)[C@H]2O[C@@H]2O[C@@H](CO)[C@H](O)[C@@H](O)[C@@H]2NC)[C@@H](N/C(N)=N\[H])[C@@H]1O` [streptomycin, reference compound], the “nanoparticle (formation of monolayer-protected Au nanoparticles)” value (shortened to “nanoparticle”) in data set [1] was determined as 2.5 ± 1.2 nm.

For `Cc1ncc(C[n+]2csc(CCO)c2C)c(N)n1` [thiamine], the “nanoparticle” value in data set [1] is recorded as “did not form”.

Consider `Nc1nc2c(ncn2[C@@H]2O[C@H](COP(=O)(O)OP(=O)(O)O)[C@@H](O)[C@H]2O)c(=O)[nH]1` [guanosine diphosphate], for which the “nanoparticle” value in data set [1] is 2.4 ± 1.0 nm.

In the case of `Nc1ncnc2c1ncn2[C@@H]1O[C@H](CO)[C@@H](O)[C@H]1O` [adenosine], the “nanoparticle” value in data set [1] is reported as “did not form”.

`COC(=O)CCC(NC(=O)c1ccc(N(C)Cc2cnc3nc(N)nc(N)c3n2)cc1)C(=O)OC` (stereo not drawn) [methotrexate dimethyl ester]: the “nanoparticle” value in data set [1] is listed as 2.2 ± 0.6 nm.

With `Nc1nc2c(ncn2[C@@H]2O[C@H](CO)[C@@H](O)[C@H]2O)c(=O)[nH]1` [guanosine], the “nanoparticle” value in data set [1] was determined as 2.7 ± 1.6 nm.

Take `CSCC[C@H](N)C(=O)O` [methionine]: the “nanoparticle” value in data set [1] is given as “did not form”.

For the molecule `Nc1ncnc2c1ncn2[C@@H]1O[C@H](COP(=O)(O)OP(=O)(O)OP(=O)(O)O)[C@@H](O)[C@H]1O` [adenosine triphosphate], the “nanoparticle” value in data set [1] was determined as 2.1 ± 0.7 nm.

On to `Nc1ccn([C@@H]2O[C@H](COP(=O)(O)OP(=O)(O)O)[C@@H](O)[C@H]2O)c(=O)n1` [cytidine diphosphate], for which the “nanoparticle” value in data set [1] came out at 2.5 ± 0.8 nm.

Take `Nc1ncnc2c1ncn2[C@H]1C[C@H](O)[C@@H](CO)O1` [deoxyadenosine]: the “nanoparticle” value in data set [1] is reported as “did not form”.

`Nc1nc2c(ncn2[C@@H]2O[C@H](COP(=O)(O)O)[C@@H](O)[C@H]2O)c(=O)[nH]1` [guanosine monophosphate]: the “nanoparticle” value in data set [1] is 2.6 ± 1.0 nm.

Take `Nc1nc2c(ncn2[C@@H]2O[C@H](COP(=O)(O)OP(=O)(O)OP(=O)(O)O)[C@@H](O)[C@H]2O)c(=O)[nH]1` [guanosine triphosphate]: the “nanoparticle” value in data set [1] worked out at 2.3 ± 0.7 nm.

Turning to `Nc1ccn([C@@H]2O[C@H](COP(=O)(O)O)[C@@H](O)[C@H]2O)c(=O)n1` [cytidine monophosphate], the “nanoparticle” value in data set [1] was found to be 4.5 ± 2.8 nm.

In the case of `CN(Cc1cnc2nc(N)nc(N)c2n1)c1ccc(C(=O)N[C@@H](CCC(=O)O)C(=O)O)cc1` [MTX, methotrexate], the “nanoparticle” value in data set [1] turned out to be 2.6 ± 0.7 nm. The THP-1 cell growth entry in data set [2] is reported as “dose-dependent THP-1 growth suppression”. Also, in data set [3], the HSPC growth entry is on record as “not significantly affected; also recorded: does not significantly affect”.

As to `COc1cccc2c1C(=O)c1c(O)c3c(c(O)c1C2=O)C[C@@](O)(C(=O)CO)C[C@@H]3O[C@H]1C[C@H](N)[C@H](O)[C@H](C)O1` [doxorubicin, reference compound], the “nanoparticle” value in data set [1] is 3.3 ± 1.2 nm.

With `Nc1ccn([C@@H]2O[C@H](COP(=O)(O)OP(=O)(O)OP(=O)(O)O)[C@@H](O)[C@H]2O)c(=O)n1` [cytidine triphosphate], in data set [1], the “nanoparticle” value was found to be 2.6 ± 0.9 nm.

Regarding `Cc1cc2nc3c(=O)[nH]c(=O)nc-3n(C[C@H](O)[C@H](O)[C@H](O)COP(=O)(O)OP(=O)(O)OC[C@H]3O[C@@H](n4cnc5c(N)ncnc54)[C@H](O)[C@@H]3O)c2cc1C` [flavin adenine dinucleotide (FAD), flavin adenine dinucleotide], the “nanoparticle” value in data set [1] came to 4.2 ± 1.6 nm.

`Nc1nc2c(ncn2[C@H]2C[C@H](O)[C@@H](CO)O2)c(=O)[nH]1` [deoxyguanosine]: the “nanoparticle” value in data set [1] is reported as “did not form”.

In the case of `Cc1ncc(C[n+]2csc(CCOP(=O)(O)OP(=O)(O)O)c2C)c(N)n1` [thyamine pyrophosphate], the “nanoparticle” value in data set [1] came out at 3.1 ± 1.3 nm.

As to `NCCCC[C@H](N)C(=O)O` [lysine], the “nanoparticle” value in data set [1] was “did not form”.

For `Nc1nc2ncc(CNc3ccc(C(=O)N[C@@H](CCC(=O)O)C(=O)O)cc3)nc2c(=O)[nH]1` [folic acid], the “nanoparticle” value in data set [1] stood at 2.6 ± 1.1 nm.

Regarding `Nc1ncnc2c1ncn2[C@@H]1O[C@H](COP(=O)(O)O)[C@@H](O)[C@H]1O` [adenosine monophosphate], in data set [1], the “nanoparticle” value is reported as “did not form”.

As for `Nc1ncnc2c1ncn2[C@@H]1O[C@H](COP(=O)(O)OP(=O)(O)O)[C@@H](O)[C@H]1O` [adenosine diphosphate], the “nanoparticle” value in data set [1] is on record as 2.3 ± 0.7 nm.

Take `Nc1ccn([C@H]2C[C@H](O)[C@@H](CO)O2)c(=O)n1` [deoxycytidine]: the “nanoparticle” value in data set [1] was “did not form”.

`NCCc1ccc(O)c(O)c1` [dopamine, reference compound]: the “nanoparticle” value in data set [1] is listed as “did not form”.

For the origin of these results see patent US20150231077A1, “AMINE PASSIVATED NANOPARTICLES FOR CANCER TREATMENT AND IMAGING” (THE CLEVELAND CLINIC FOUNDATION, priority 2014, published 2015).
